Test results as given in patent US20090325923A1, “NEW METHOD FOR THE TREATMENT OF INFLAMMATORY DISEASES” (TOPOTARGET SWITZERLAND SA, priority 2006, published 2009).

What was measured:
[1] = system: human monocyte-derived dendritic cells; assay: LPS-stimulated cytokine secretion by ELISA in dendritic cells; format: cell-based
Description: (§1) Human monocytic cell line THP-1, human peripheral blood mononuclear cells (PBMC), human monocyte-derived dendritic cells, or mouse peritoneal macrophages were isolated and cultured overnight with increasing doses of FK866, and then stimulated with LPS for 6 h. The culture supernatants were tested for TNF and IL-6 content by ELISA
Human dendritic cells (mean and SD from 5 different donors) were incubated with 20 nM FK866 before stimulation with LPS or LPS+IFNγ. Pro-inflammatory cytokine levels in the supernatant were measured by ELISA after 16 h of culture.
as §1, with “This example describes the inhibition of pro-inflammatory cytokines production by the competitive small molecular weight compound inhibitor of NMPRT, ((E)-N-[4-(1-benzoylpiperidin-4-yl)butyl]-3-(pyridin-3-yl)acrylamide, designated FK866). Human” for “Human”, “ELISA.” for “ELISA”
This example describes the inhibition of other pro-inflammatory cytokine production, in addition to TNFα, IL-1β and IL-6, by FK866. Human dendritic cells from 5 different donors were cultured with FK866 before stimulation with LPS or LPS+IFNγ. The culture supernatants were tested for TNFα, IL-12 (p40 and p70), and IL-23 content by ELISA.

RAW264.7 cell line [2] = assay: TNFα mRNA levels by RT-PCR in RAW264.7 cells; format: cell-based, mouse; conditions: RAW 264.7, LPS in the presence of FK866, RT-PCR
Description: The murine RAW264.7 cell line was stimulated with LPS in the presence of FK866. TNF protein concentrations were determined by ELISA (above panel) while mRNA levels were determined by RT-PCR (below panel).
This example illustrates that FK866 inhibits TNFα secretion at a posttranscriptional level. The murine RAW 264.7 cell line was incubated in the presence of graded doses of FK866, stimulated with microbial products, and levels of TNFα released in the supernatant evaluated by ELISA.

[3] = system: human monocyte-derived dendritic cells; assay: Annexin-V and propidium iodide survival assay in dendritic cells; format: cell-based; conditions: overnight increasing doses of FK866, LPS 6 h, vs untreated cells
Description: (B) Human monocyte-derived dendritic cells were isolated and cultured overnight with increasing doses of FK866, and then stimulated with LPS for 6 h. At the end of the culture, the survival of cells was measured by Annexin-V and propidium iodide staining.
In another experiment, human monocyte-derived dendritic cells were isolated and cultured overnight with increasing doses of FK866, and then stimulated with LPS for 6 h.

Human PBMC = assay: MTT cell viability assay in PBMC; format: cell-based; conditions: overnight increasing doses of FK866, LPS 6 h
Description: (§2) (A) Human PBMC were isolated and cultured overnight with increasing doses of FK866, and then stimulated with LPS for 6 h. At the end of the culture, cell viability was assessed using the MTT (3-(4,5-Dimethylthiazol-2-yl)-2,5-diphenyltetrazolium bromide) assay.
as §2, with “This example illustrates that the inhibition of proinflammatory cytokine secretion induced by lowering intracellular NAD levels is not due to apoptosis induction.” for “(A)”

RAW264.7 cell line [4] = assay: Intracellular NAD by enzymatic assay in RAW264.7 cells; format: cell-based, mouse; conditions: RAW264.7, overnight increasing doses of FK866, LPS 2 h
Description: (§3) (A) The mouse macrophage cell line RAW264.7 was cultured overnight with increasing doses of FK866, and then stimulated with LPS for 2 h. The culture supernatants were tested for TNF content by ELISA and intracellular NAD levels were measured by an enzymatic assay.
(§4) (B) RAW264.7 cells were cultured overnight in the presence of FK866 and the intracellular pool of NAD was restored by co-incubation of the cells with nicotinic acid (NA). Cells were then stimulated with LPS for 2 h and the culture supernatant was tested for TNF content by ELISA.
(C) RAW264.7 cells were cultured overnight in the presence of FK866 and NAD levels were maintained by culturing the cells in the presence of extracellular NAD. Cells were then stimulated with LPS for 2 h and the culture supernatant was tested for TNF content by ELISA.
as §3, with “This example illustrates the correlation between proinflammatory cytokine secretion and NAD levels in the cell.” for “(A)”
as §4, with “In another experiment,” for “(B)”, “nicotinic acid. Nicotinic” for “nicotinic”, “is a precursor of NAD, but its transformation into NAD is not dependent upon NMPRT and is thus not inhibited by FK866.” for “(NA).”
In another experiment, RAW264.7 cells were cultured overnight in the presence of FK866 and NAD levels were maintained by culturing the cells in the presence: of extra-cellular NAD. Cells were then stimulated with LPS for 2 h and the culture supernatant was tested for TNF content by ELISA.

[5] = system: Human monocytic cell line THP-1; assay: LPS-stimulated cytokine secretion by ELISA in THP-1 cells; format: cell-based; conditions: THP-1, overnight increasing doses of FK866, LPS 6 h
Description: (§5) Human monocytic cell line THP-1 was cultured overnight in the presence of graded doses of nicotinic acid (NA), a precursor of NAD, and then stimulated with lipopolysaccharide (LPS) from gram-negative bacteria for 2 h. The cell supernatant was tested for tumor necrosis factor (TNF) content by ELISA and the intracellular pool of NAD was measured by an enzymatic assay.
as §1
THP-1 cells were incubated in the presence of 10 nM FK866 and graded doses of NMN. Cells were further stimulated with LPS and intracellular NAD levels and TNFα secretion were determined using standard assays.
as §5, with “This example illustrates the direct relationship between NAD levels in cells and pro-inflammatory cytokine secretion. Human” for “Human”, “of” for “of graded doses of”, “acid,” for “acid (NA),”
as §1, with “This example describes the inhibition of pro-inflammatory cytokines production by the competitive small molecular weight compound inhibitor of NMPRT, ((E)-N-[4-(1-benzoylpiperidin-4-yl)butyl]-3-(pyridin-3-yl)acrylamide, designated FK866). Human” for “Human”, “ELISA.” for “ELISA”
This example illustrates that NAMPT is the only molecular target of FK866. […]

[6] = human dendritic cells from 5 donors, 20 nM FK866, LPS or LPS+IFNγ, 16 h

SMILES: O=C(/C=C/c1cccnc1)NCCCCC1CCN(C(=O)c2ccccc2)CC1 [FK866, (E)-N-[4-(1-benzoylpiperidin-4-yl)butyl]-3-(pyridine-3-yl)-acrylamide]
- IL-12 (p40 and p70) production [1, 6]: inhibited
- IL-23 production [1, 6]: inhibited
- TNFα production [1, 6]: inhibited
- cytokine secretion (TNF and IL-6) ([1]; human monocyte-derived dendritic cells, overnight increasing doses of FK866, LPS 6 h): inhibited cytokine secretion in a dose-dependent fashion
- TNFα mRNA levels (RAW264.7 cell line [2]): did not significantly affect
- survival of cells (Annexin-V and propidium iodide staining) [3]: no difference in survival
- cell viability (MTT) (Human PBMC): not affected
- intracellular NAD levels (RAW264.7 cell line [4]): inhibition of intracellular NAD levels
- cytokine secretion (TNF and IL-6) [5]: inhibited cytokine secretion in a dose-dependent fashion
